{
  "source": "patent US20260027380A1",
  "about": "“TECHNIQUES FOR MAGNETIC NANOCLUSTER-BASED COMBINATION THERAPY” (William Marsh Rice University, priority 2022, published 2026)",
  "key": {"MC-38 cells [1]": {"system": "MC-38 cells", "assay": "Detection of intracellular free radicals (H2DCFDA)", "format": "cell-based, murine", "conditions": "without AMF", "procedure": "Additionally, intracellular free radical generation by IONC-AAPH was measured using 2′,7′-dichlorodihydrofluorescein diacetate (H2DCFDA) as an intracellular free radical probe. H2DCFDA is a non-fluorescent cell-permeant compound. Upon oxidation by free radicals, H2DCFDA is converted to a highly fluorescent 2′,7′-dichlorofluorescein (DCF). MC-38 cells (murine colon adenocarcinoma cell line) were pre-incubated with IONC or IONC-AAPH (at 300 μg Fe/mL concentration) for 1 h to allow internalization into cells. The intracellular IONC and IONC-AAPH were 0.79±0.16 and 0.87±0.12 pg Fe/cell, respectively, as quantified by a ferrozine-based colorimetric assay. After internalization, the cells were exposed to AMF for 1 h. The intracellular free radicals in the MC-38 cells were then examined with H2DCFDA through fluorescence microscopy and flow cytometry. FIG. 4 illustrates a flow cytometry analysis of intracellular free radicals in MC-38 cells detected via fluorescence from DCF. Further, FIG. 5 is a graph illustrating the quantification of intracellular free radicals (e.g., quantification of the mean fluorescence of DCF). The data in FIG. 5 represents the mean DCF fluorescence of each group +the standard error of mean (s.e.m.).\nDetection of intracellular free radicals: The intracellular generation of free radicals was determined using H2DCFDA probe. […]"}, "MC-38 cells [2]": {"system": "MC-38 cells", "assay": "Mitochondrial membrane potential (JC-1 staining)", "format": "cell-based, murine", "conditions": "without AMF", "from_the_text": "JC-1 dye was used to examine the effect of heat and free radical generation by IONC-AAPH on mitochondria. JC-1 dye is an indicator of mitochondrial membrane potential (MMP). In healthy cells with high MMP, JC-1 accumulates in the mitochondria and forms J-aggregates, which emit red fluorescence. In contrast, apoptotic cells with low MMP, JC-1 diffuses in the cytoplasm and remains as J-monomers, which give green fluorescence. A decrease in J-aggregates to J-monomers ratio indicates MMP loss (i.e., mitochondrial depolarizations). […] The J-aggregates to J-monomers ratios quantified using flow cytometry confirmed the significant MMP loss due to heat and free radicals, as illustrated in FIGS. 9 (depicting results of flow cytometry analysis of mitochondrial membrane potential of MC-38 cells 4 h after treatment by JC-1 staining) and 10 (depicting quantification of the J-aggregate to J-monomer ratio using the mean fluorescence detected by flow cytometry in FIG. 9).\nDetermination of mitochondrial health: The mitochondrial membrane potential of MC-38 cells was determined with JC-1 staining assay. […] After staining, the cells were imaged with a confocal microscope (Nikon A1-Rsi confocal) or analyzed on a flow cytometer (BD Accuri C6 Plus). The ratio of J-aggregates to J-monomers was calculated using the red and green fluorescence intensity measured by flow cytometry."}, "MC-38 cells [3]": {"system": "MC-38 cells", "assay": "Quantification of intracellular GSH (GSH-Glo)", "format": "cell-based, murine", "conditions": "without AMF, 37° C. for 4 h", "procedure": "Glutathione (GSH) is an antioxidant that plays an important role in the scavenging of intracellular free radicals and protecting the cells against oxidative damage. GSH depletion will disrupt the redox homeostasis and lead to oxidative stress and eventual cell death. MC-38 cells were treated with 300 μg Fe/mL of IONC or IONC-AAPH and subjected to AMF for 2 hours. The intracellular GSH was quantified after 2 hours of incubation at 37° C. Intracellular GSH was also measured for cells treated with AAPH, IONC, or IONC-AAPH, respectively, without AMF and incubated at 37° C. for 4 h. The intracellular GSH was quantified using a luminescence-based GSH-Glo glutathione assay. FIG. 11 illustrates a GSH depletion measurement of the MC-38 cells 2 hours after treatment. […] In contrast, treating cells with IONC-AAPH under AMF (i.e., with both heating and free radicals) decreased the GSH/GSSG ratio to 55% of that in the control cells.\nQuantification of intracellular GSH: MC-38 cells were seeded in 4-compartment cell culture dishes at a density of 1×10^5 cells per compartment and cultured overnight. Then the cells were treated with 300 μg Fe/mL of IONC-AAPH or IONC at 37° C. or under AMF for 2 h. Two hours after the treatment, the culture medium was removed and the intracellular GSH was quantified using a luminescence-based GSH-Glo Glutathione Assay according to the manufacturer's instructions."}, "[4]": {"system": "bone marrow-derived dendritic cells (BMDCs)", "assay": "Dendritic cell maturation, coculture with treated MC-38 cells", "format": "cell-based, C57BL/6N mice", "conditions": "without AMF", "procedure": "Dendritic cells (DCs) are a key type of antigen-presenting cells that play critical roles in initiating and regulating antitumor immune response. To determine if the immunogenic cell death induced by magnetotherapy can activate dendritic cells, bone marrow-derived dendritic cells (BMDCs) were cocultured with IONC-AAPH-treated MC-38 cells, together with the medium containing DAMPs, in a transwell system for 24 h. The maturation of dendritic cells was estimated as the percentage of CD80+CD86+ cells in CD11c+ cells. […] The percentage of mature DCs in IONC and IONC-AAPH groups was 2.1-fold of the blank.\nDetermination of Dendritic Cell Maturation: The bone marrow-derived dendritic cells (BMDCs) were prepared from the bone marrow of 8-week old C57BL/6N mice according to an established protocol. To determine the stimulatory effect on BMDCs, IONC-AAPH-treated MC-38 cells (together with the medium containing DAMPs) were cocultured with BMDCs for 24 h in a transwell system (pore size=3 μm). BMDCs only (without coculture) were included as the blank groups. The BMDCs were collected, blocked with CD16/CD32 antibody, and stained with PECD11c, FITC-CD80, and APC-CD86. The data were acquired on MA900 Multi-Application Cell Sorter (Sony) and analyzed using FlowJo software (Tree Star)."}},
  "data": [
    {"smiles": "CC(C)(N=NC(C)(C)C(=N)N)C(=N)N.Cl.Cl", "note": "[AAPH, 2,2′-azobis(2-amidinopropane) dihydrochloride]", "values": [
      {"measurement": "intracellular free radicals (DCF fluorescence)", "setting": "MC-38 cells [1]", "result": "negligible fluorescence"},
      {"measurement": "JC-1 state (mitochondrial membrane potential)", "setting": "MC-38 cells [2]", "result": "J-aggregates were formed"},
      {"measurement": "change in GSH to GSSG ratio", "setting": "MC-38 cells [3]", "result": "did not affect the GSH to GSSG ratio"},
      {"measurement": "effect on DC maturation", "setting": "[4]", "result": "did not show a noticeable effect"}
    ]}
  ]
}
